Data published in patent publication US10654818B2, “Furane derivatives as inhibitors of ATAD2” (BAYER PHARMA AKTIENGESELLSCHAFT, priority 2015, dated 2020).

Tests used:
MCF7 breast cancer cells = experiment: Cell proliferation assay (alamarBlue), MCF7; assay type: cell-based; settings: Homo sapiens, 72 h incubation, GI50 = half-maximal growth inhibition
Description: (§1) The effect of ATAD2 inhibitory compounds on cancer cell proliferation might be measured as below. For example; MCF7 breast cancer cells might be seeded into 96-well microtiter plates at 2000 cells/well in 90 μl cell culture media (RPMI 1640, 10% FCS, 2 mM L-Glutamine, 10 μg/ml human Insulin, […]) and incubated for 24 h at 37° C. and 5% CO2. Note, the culturing conditions might vary from cell line to cell line depending on their standard culturing conditions. Compounds might be then delivered to the microtiter assay plates and, following a 72 h long incubation period at 37° C. and 5% CO2, the viability of the cells might be measured with addition of alamarBlue® (Invitrogen) to the medium in Victor X3 Multilabel Plate Reader (Perkin Elmer).
(§2) GI50 means half-maximal growth inhibition.

[1] = molecular target: T1, recombinant, N-terminally GST-tagged ATAD2 bromodomain amino acids 981-1108 (Homo sapiens, UniProt Q6PL18); experiment: TR-FRET assay: disruption of the interaction between ATAD2 and acetylated Histone H4 (Ac-H4) peptide; assay type: binding; settings: inhibition of ATAD2/Ac-H4 complex formation; 10 nM ATAD2, 50 nM Ac-H4 peptide
T1 construct: ATAD2 bromodomain amino acids 981-1108; made in house; host or cells: E. coli
T1 sequence (Q6PL18 981-1108): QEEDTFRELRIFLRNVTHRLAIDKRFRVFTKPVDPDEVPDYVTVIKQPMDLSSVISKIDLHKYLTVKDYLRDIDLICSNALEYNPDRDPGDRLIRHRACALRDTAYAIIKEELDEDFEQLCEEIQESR
Procedure, shortened: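 10 nM protein (final) pre-incubated 10 min at 22 °C with compound (0.1 nM-20 μM, 11 points, duplicate), then 50 nM biotinylated Ac-H4 peptide plus anti-GST-XL665/streptavidin-Eu added for 1 h at 22 °C in HEPES pH 7.5 buffer. 665/622 nm emission ratio read; IC50 from 4-parameter fit of normalized inhibition.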

NCl-H526 lung cancer = experiment: Cell proliferation assay (alamarBlue), NCl-H526; assay type: cell-based; settings: GI50 = half-maximal growth inhibition
Description: as §1, §2

Row | Structure (SMILES) | GI50 (MCF7 breast cancer cells) | IC50 [1] | GI50 (NCl-H526 lung cancer)
1 | Cc1ccc([C@@H](C)NCc2ccc(-c3ccc(Cl)c(C(=O)N[C@@H](C)Cc4ccc(C#N)cc4)c3)o2)cc1 [Example 42, 2-chloro-N-[(2S)-1-(4-cyanophenyl)propan-2-yl]-5-[5-({[(1R)-1-(4-methylphenyl)ethyl]amino}methyl)-2-furyl]benzamide] | 11.9 µM | 1.1 µM | > 30 µM
2 | CC(C)(NCc1ccc(-c2ccc(Cl)c(C(=O)N[C@@H](CN)Cc3ccc(C#N)cc3)c2)o1)c1ccc(C(F)(F)F)cc1 [Example 74, N-[(2R)-1-amino-3-(4-cyanophenyl)propan-2-yl]-2-chloro-5-{5-[({2-[4-(trifluoro-methyl)phenyl]propan-2-yl}amino)methyl]-2-furyl}benzamide] |  | 0.671 µM | 
3 | C[C@@H](NCc1ccc(-c2ccc(Cl)c(C(=O)N[C@@H](CN)Cc3ccc(C#N)cc3)c2)o1)c1ccc(C(F)(F)F)cc1 [Example 75, N-[(2R)-1-amino-3-(4-cyanophenyl)propan-2-yl]-2-chloro-5-{5-[({(1R)-1-1-[4-(trifluoromethyl)phenyl]ethyl}amino)methyl]-2-furyl}benzamide] |  | 0.567 µM | 
4 | Cc1ccc([C@@H](C)NCc2ccc(-c3cc(F)c(Cl)c(C(=O)N[C@@H](CO)Cc4ccc(C#N)cc4)c3)o2)cc1 [Example 77, 2-chloro-N-[(2R)-1-(4-cyanophenyl)-3-hydroxypropan-2-yl]-3-fluoro-5-[5-({[(1R)-1-(4-methylphenyl)ethyl]amino}methyl)-2-furyl]benzamide] |  | 0.598 µM | 
5 | Cc1ccc([C@@H](C)NCc2ccc(-c3cc(C(=O)N[C@@H](CO)Cc4ccc(C#N)cc4)c(Cl)cc3Cl)o2)cc1 [Example 78, 2,4-dichloro-N-[(2R)-1-(4-cyanophenyl)-3-hydroxypropan-2-yl]-5-[5-({[(1R)-1-(4-methylphenyl)ethyl]amino}methyl)-2-furyl]benzamide] |  | 1.23 µM | 
6 | Cc1ccc([C@@H](C)NCc2ccc(-c3cc(C(=O)N[C@@H](CO)Cc4ccc(C#N)cc4)ccc3C#N)o2)cc1 [Example 79, 4-cyano-N-[(2R)-1-(4-cyanophenyl)-3-hydroxypropan-2-yl]-3-[5-({[(1R)-1-(4-methylphenyl)ethyl]amino}methyl)-2-furyl]benzamide] |  | 1.4 µM | 
7 | COc1cc(Cl)c(C(=O)N[C@H](Cc2ccc(C#N)cc2)C(=O)N[C@H]2CC[C@H](N)CC2)cc1-c1ccc(CN[C@H](C)c2ccc(C)cc2)o1 [Example 85, N-(trans-4-aminocyclohexyl)-Nα-{2-chloro-4-methoxy-5-[5-({[(1R)-1-(4-methylphenyl)ethyl]amino}methyl)-2-furyl]benzoyl}-4-cyano-D-phenylalaninamide] |  | 0.415 µM | 
8 | CNC(=O)C[C@@H](Cc1ccc(C#N)cc1)NC(=O)c1cc(-c2ccc(CN[C@H](C)c3ccc(Cl)cc3)o2)ccc1Cl [Example 89, 2-chloro-5-[5-({[(1R)-1-(4-chlorophenyl)ethyl]amino}methyl)-2-furyl]-N-[(2R)-1-(4-cyanophenyl)-4-(methylamino)-4-oxobutan-2-yl]benzamide] |  | 2.06 µM | 
9 | CNC(=O)C[C@@H](Cc1ccc(C#N)cc1)NC(=O)c1ccc(C#N)c(-c2ccc(CN[C@H](C)c3ccc(C)cc3)o2)c1 [Example 91] |  | 13.4 µM | 
10 | CNC(=O)C[C@@H](Cc1ccccc1)NC(=O)c1cc(-c2ccc(CN[C@H](C)c3ccc(C)cc3)o2)ccc1Cl [Example 92] |  | 8.37 µM | 
11 | CNC(=O)C[C@@H](Cc1ccc(C#N)cc1)NC(=O)c1cc(-c2ccc(CNC(C)(C)c3ccccc3)o2)ccc1Cl [Example 93] |  | 7.69 µM | 
12 | CNC(=O)C[C@@H](Cc1ccc(C#N)cc1)NC(=O)c1cc(-c2ccc(CNC(C)(C)c3ccc(C)cc3)o2)ccc1Cl [Example 94] |  | 2.98 µM | 
13 | CC(C)(NCc1ccc(-c2ccc(Cl)c(C(=O)NC(Cc3ccc(C#N)cc3)C(N)=O)c2)o1)c1ccc(Cl)cc1 (stereo not shown) [Example 95] |  | 2.82 µM | 
14 | Cc1ccc([C@@H](C)NCc2ccc(-c3ccc(Cl)c(C(=O)N[C@@H](CO)Cc4ccccc4)c3)o2)cc1 [Example 96] |  | 2.65 µM | 

The next lines start with the values.

Row | GI50 (MCF7 breast cancer cells) | IC50 [1] | GI50 (NCl-H526 lung cancer) | Structure (SMILES)
15 | 3.18 µM | 0.107 µM | 1.25 µM | Cc1ccc([C@@H](C)NCc2ccc(-c3ccc(Cl)c(C(=O)N[C@@H](CN[C@H]4CC[C@@H](N)CC4)Cc4ccc(C#N)cc4)c3)o2)cc1 (single isomer, unassigned) [Example 71]
16 | 11.5 µM | 0.393 µM | 15.4 µM | Cc1ccc([C@@H](C)NCc2ccc(-c3ccc(Cl)c(C(=O)N[C@@H](CO)Cc4ccc(C#N)cc4)c3)o2)cc1 [Example 4, 2-chloro-N-[(2R)-1-(4-cyanophenyl)-3-hydroxypropan-2-yl]-5-[5-({[(1R)-1-(4-methylphenyl)ethyl]amino}methyl)-2-furyl]benzamide]
17 | 1.42 µM | 0.184 µM | 1.25 µM | Cc1ccc([C@@H](C)NCc2ccc(-c3ccc(Cl)c(C(=O)N[C@@H](CCNCC4CCN(C)CC4)Cc4ccc(C#N)cc4)c3)o2)cc1 [Example 33, 2-chloro-N-[(2R)-1-(4-cyanophenyl)-4-{[(1-methylpiperidin-4-yl)methyl]amino}butan-2-yl]-5-[5-({[(1R)-1-(4-methylphenyl)ethyl]amino}methyl)-2-furyl]benzamide]
18 | 1.28 µM | 0.186 µM | 1.29 µM | Cc1ccc([C@@H](C)NCc2ccc(-c3ccc(Cl)c(C(=O)N[C@@H](CCN4CC5(CN(C)C5)C4)Cc4ccc(C#N)cc4)c3)o2)cc1 [Example 36, 2-chloro-N-[(2R)-1-(4-cyanophenyl)-4-(6-methyl-2,6-diazaspiro[3.3]hept-2-yl)butan-2-yl]-5-[5-({[(1R)-1-(4-methylphenyl)ethyl]amino}methyl)-2-furyl]benzamide]
19 | 2.51 µM | 0.273 µM | 3.6 µM | Cc1ccc([C@@H](C)NCc2ccc(-c3ccc(Cl)c(C(=O)N[C@@H](CN)Cc4ccc(C#N)cc4)c3)o2)cc1 [Example 53, N-[(2R)-1-amino-3-(4-cyanophenyl)propan-2-yl]-2-chloro-5-[5-({[(1R)-1-(4-methylphenyl)ethyl]amino}methyl)-2-furyl]benzamide]
20 | 3.76 µM | 0.245 µM | 5.1 µM | Cc1ccc([C@@H](C)NCc2ccc(-c3ccc(Cl)c(C(=O)N[C@@H](CNC[C@@H]4[C@H]5CNC[C@@H]45)Cc4ccc(C#N)cc4)c3)o2)cc1 [Example 66, N-[(2R)-1-{[(1R,5S,6r)-3-azabicyclo[3.1.0]hex-6-ylmethyl]amino}-3-(4-cyanophenyl)propan-2-yl]-2-chloro-5-[5-({[(1R)-1-(4-methylphenyl)ethyl]amino}methyl)-2-furyl]benzamide]
21 |  | 0.407 µM |  | COc1cc(C)c(C(=O)N[C@@H](CO)Cc2ccc(C#N)cc2)cc1-c1ccc(CN[C@H](C)c2ccc(C)cc2)o1 [Example 80, N-[(2R)-1-(4-cyanophenyl)-3-hydroxypropan-2-yl]-4-methoxy-2-methyl-5-[5-({[(1R)-1-(4-methylphenyl)ethyl]amino}methyl)-2-furyl]benzamide]
22 |  | 0.35 µM |  | COc1cc(Cl)c(C(=O)N[C@@H](CO)Cc2ccc(C#N)c(C)c2)cc1-c1ccc(CN[C@H](C)c2ccc(C)cc2)o1 [Example 82]
23 |  | 0.233 µM |  | COc1cc(Cl)c(C(=O)N[C@@H](CN)Cc2ccc(C#N)cc2)cc1-c1ccc(CN[C@H](C)c2ccc(C)cc2)o1 [Example 83, N-[(2R)-1-amino-3-(4-cyanophenyl)propan-2-yl]-2-chloro-4-methoxy-5-[5-({[(1R)-1-(4-methylphenyl)ethyl]amino}methyl)-2-furyl]benzamide]
24 |  | 0.27 µM |  | COc1cc(Cl)c(C(=O)N[C@@H](CN)Cc2ccc(C#N)c(C)c2)cc1-c1ccc(CN[C@H](C)c2ccc(C)cc2)o1 [Example 84, N-[(2R)-1-amino-3-(4-cyano-3-methylphenyl)propan-2-yl]-2-chloro-4-methoxy-5-[5-({[(1R)-1-(4-methylphenyl)ethyl]amino}methyl)-2-furyl]benzamide]
25 |  | 0.216 µM |  | COc1cc(Cl)c(C(=O)N[C@@H](CN[C@H]2CC[C@@H](N)CC2)Cc2ccc(C#N)cc2)cc1-c1ccc(CN[C@H](C)c2ccc(C)cc2)o1 [Example 87, N-[(2R)-1-[(4-aminocyclohexyl)amino]-3-(4-cyanophenyl)propan-2-yl]-2-chloro-4-methoxy-5-[5-({[(1R)-1-(4-methylphenyl)ethyl]amino}methyl)-2-furyl]benzamide]
26 |  | 0.128 µM |  | COc1cc(Cl)c(C(=O)N[C@@H](CN[C@H]2CC[C@@H](N)CC2)Cc2ccc(C#N)c(C)c2)cc1-c1ccc(CN[C@H](C)c2ccc(C)cc2)o1 [Example 88, N-[(2R)-1-[(4-aminocyclohexyl)amino]-3-(4-cyano-3-methylphenyl)propan-2-yl]-2-chloro-4-methoxy-5-[5-({[(1R)-1-(4-methylphenyl)ethyl]amino}methyl)-2-furyl]-benzamide]
